Data as given in ChEMBL document CHEMBL3865812, “Selective killing of cancer cells with triterpenoic acid amides - The substantial role of an aromatic moiety alignment” (Eur J Med Chem, 2016).
Calls of active or inactive are those of the source. The calls are words filed in the database; no cut-off is given here.

Experiments:
[1] = Cytotoxicity against human MCF7 cells measured after 96 hrs by SRB assay; assay type: functional, cell-based; details: MCF7, 96 h
[2] = Cytotoxicity against human HT-29 cells measured after 96 hrs by SRB assay; assay type: functional, cell-based; details: HT-29, 96 h
[3] = Cytotoxicity against human A549 cells measured after 96 hrs by SRB assay; assay type: functional, cell-based; details: A549, 96 h
[4] = Cell cycle arrest in human A2780 cells assessed as decrease in accumulation of cells at S-phase at 6 uM measured after 48 hrs by propidium iodide staining based FACS analysis; assay type: functional
[5] = Solubility of compound in water; assay type: physicochemical; details: buffer
[6] = Cytotoxicity against mouse NIH/3T3 cells measured after 96 hrs by SRB assay; assay type: toxicity, NIH3T3
A2780 [7] = assay: Induction of apoptosis in human A2780 cells assessed as increase in apoptotic cells at 6 uM measured after 2 days by Annexin V/FITC/propidium iodide staining-based FACS analysis; assay type: functional, cell-based
[8] = Cell cycle arrest in human A2780 cells assessed as accumulation at S-phase at 6 uM measured after 24 hrs by propidium iodide staining based FACS analysis; assay type: functional
[9] = Cytotoxicity against human 8505C cells measured after 96 hrs by SRB assay; assay type: functional, cell-based
[10] = Cell cycle arrest in human A2780 cells assessed as sub-G1 peak appearance at 6 uM measured after 48 hrs by propidium iodide staining based FACS analysis; assay type: functional
A2780 [11] = assay: Induction of apoptosis in human A2780 cells assessed as secondary necrotic cells at 6 uM measured after 2 days by Annexin V/FITC/propidium iodide staining-based FACS analysis; assay type: functional, cell-based
[12] = Cytotoxicity against human A2780 cells measured after 96 hrs by SRB assay; assay type: functional, cell-based; details: A2780, 96 h
[13] = Cell cycle arrest in human A2780 cells assessed as decrease in G1 peak at 6 uM measured after 24 hrs by propidium iodide staining based FACS analysis; assay type: functional
[14] = Cytotoxicity against human 518A2 cells measured after 96 hrs by SRB assay; assay type: functional, cell-based; details: 518A2, 96 h
[15] = Cell cycle arrest in human A2780 cells assessed as loss of G2 peak at 6 uM measured after 24 hrs by propidium iodide staining based FACS analysis; assay type: functional
A2780 [16] = assay: Induction of apoptosis in human A2780 cells assessed as increase in apoptotic cells at 1.5 uM measured after 24 hrs by Annexin V/FITC/propidium iodide staining-based FACS analysis relative to control; assay type: functional
[17] = Cell cycle arrest in human A2780 cells assessed as sub-G1 peak appearance at 1.5 uM measured after 48 hrs by propidium iodide staining based FACS analysis; assay type: functional
[18] = Cell cycle arrest in human A2780 cells assessed as decrease in G1 peak at 1.5 uM measured after 24 hrs by propidium iodide staining based FACS analysis; assay type: functional
A2780 [19] = assay: Induction of apoptosis in human A2780 cells assessed as apoptotic cells at 1.5 uM measured after 48 hrs by Annexin V/FITC/propidium iodide staining-based FACS analysis relative to control; assay type: functional
[20] = Cell cycle arrest in human A2780 cells assessed as accumulation at S-phase at 1.5 uM measured after 24 hrs by propidium iodide staining based FACS analysis; assay type: functional
[21] = Cell cycle arrest in human A2780 cells assessed as decrease in accumulation of cells at S-phase at 1.5 uM measured after 48 hrs by propidium iodide staining based FACS analysis; assay type: functional
[22] = Cell cycle arrest in human A2780 cells assessed as loss of G2 peak at 1.5 uM measured after 24 hrs by propidium iodide staining based FACS analysis; assay type: functional
A2780 [23] = assay: Selectivity index, ratio of EC50 for mouse NIH/3T3 cells to EC50 for human A2780 cells; assay type: functional
A2780 [24] = assay: Induction of apoptosis in human A2780 cells assessed as increase in secondary necrotic cells at 1.5 uM measured after 48 hrs by Annexin V/FITC/propidium iodide staining-based FACS analysis relative to control; assay type: functional
A2780 [25] = assay: Induction of apoptosis in human A2780 cells assessed as secondary necrotic cells at 6 uM measured after 40 hrs by acridine orange/propidium iodide staining-based fluorescence microscopic analysis; assay type: functional, cell-based
A2780 [26] = assay: Induction of apoptosis in human A2780 cells assessed as induction of membrane blebbing at 6 uM measured after 40 hrs by acridine orange/propidium iodide staining-based fluorescence microscopic analysis; assay type: functional, cell-based

Row | solubility [5] | SMILES | EC50 [1] [nM] | EC50 [2] [nM] | EC50 [3] [nM] | Activity [4] | EC50 at 96 h [6] [nM] | Activity (A2780 [7]) | Activity [8] | EC50 [9] [nM] | Activity [10] | Activity (A2780 [11]) | EC50 [12] [nM] | Activity [13] | EC50 [14] [nM] | Activity [15] | further results
1 | Insoluble | CC(=O)O[C@H]1C[C@]2(C)[C@H]3CC=C4[C@@H]5CC(C)(C)CC[C@]5(C(=O)Nc5ccc6ncccc6c5)CC[C@@]4(C)[C@]3(C)CC[C@H]2C(C)(C)[C@H]1OC(C)=O | 5800 | 4400 | 4900 | Active | 600 | Active | Active | 3800 | Active | Active | 2000 | Active | 2900 | Active | –
2 | Insoluble | CC(=O)O[C@H]1C[C@]2(C)[C@H]3CC=C4[C@@H]5CC(C)(C)CC[C@]5(C(=O)Nc5cnc6ccccc6c5)CC[C@@]4(C)[C@]3(C)CC[C@H]2C(C)(C)[C@H]1OC(C)=O | 9300 | 6300 | 7400 | Active | 900 | Active | Active | 5000 | Active | Active | 2200 | Active | 2900 | Active | –
3 | – | CC(=O)OC[C@@]1(C)[C@@H]2CC[C@]3(C)[C@H](CC=C4[C@@H]5[C@@H](C)[C@H](C)CC[C@]5(C(=O)Nc5cncc6ccccc56)CC[C@]43C)[C@@]2(C)C[C@@H](OC(C)=O)[C@@H]1OC(C)=O | 540 | 220 | 290 | – | 3230 | Active | – | – | – | Active | 80 | – | 190 | – | Activity (A2780 [16]): 20%; Activity [17]: Active; Activity [18]: Active; Activity (A2780 [19]): 10%; Activity [20]: Active; Activity [21]: Active; Activity [22]: Active; Ratio EC50 (A2780 [23]): 40; Activity (A2780 [24]): 45%
4 | – | CC(=O)O[C@H]1C[C@]2(C)[C@H]3CC=C4[C@@H]5CC(C)(C)CC[C@]5(C(=O)Nc5cccc6ncccc56)CC[C@@]4(C)[C@]3(C)CC[C@H]2C(C)(C)[C@H]1OC(C)=O | 2500 | 2400 | 3000 | Active | 8600 | Active | Active | 2300 | Active | Active | 700 | Active | 1200 | Active | –
5 | Insoluble | CC(=O)O[C@H]1C[C@]2(C)[C@H]3CC=C4[C@@H]5CC(C)(C)CC[C@]5(C(=O)Nc5ccnc6ccccc56)CC[C@@]4(C)[C@]3(C)CC[C@H]2C(C)(C)[C@H]1OC(C)=O | 4300 | 4100 | 4200 | Active | 2900 | Active | Active | 3400 | Active | Active | 2000 | Active | 2400 | Active | –
6 | – | CC(=O)OC[C@@]1(C)[C@@H]2CC[C@]3(C)[C@H](CC=C4[C@@H]5[C@@H](C)[C@H](C)CC[C@]5(C(=O)Nc5cccc6ncccc56)CC[C@]43C)[C@@]2(C)C[C@@H](OC(C)=O)[C@@H]1OC(C)=O | 1400 | 800 | 1100 | – | 10200 | Active | – | 900 | – | Active | 400 | – | 500 | – | Activity [17]: Active; Activity [18]: Active; Activity (A2780 [19]): Active; Activity [20]: Active; Activity [21]: Active; Activity [22]: Active; Activity (A2780 [24]): Active
7 | – | CC(=O)O[C@H]1C[C@]2(C)[C@H]3CC=C4[C@@H]5CC(C)(C)CC[C@]5(C(=O)Nc5cncc6ccccc56)CC[C@@]4(C)[C@]3(C)CC[C@H]2C(C)(C)[C@H]1OC(C)=O | 2400 | 2300 | 3300 | Active | > 60000 | Active | Active | 2600 | Active | Active | 1200 | Active | 1600 | Active | Activity (A2780 [25]): Active; Activity (A2780 [26]): Active
